# In article PMC6750108, “Crystal Structure of 4-Hydroxyphenylpyruvate Dioxygenase in Complex with Substrate Reveals a New Starting Point for Herbicide Discovery” (Research, 2019):
# How the values were obtained:
# AtHPPD = biological target: T1, AtHPPD (Arabidopsis thaliana, UniProt P93836); assay: HGD-coupled assay at […] nm, progress curves; assay type: biochemical
# T1 construct: gene HPD; full-length, N-terminal His tag (pET15b), E. coli BL21 (DE3); Ni-NTA, ion exchange, size exclusion; homodimers in crystal
# T1 sequence (P93836 1-445): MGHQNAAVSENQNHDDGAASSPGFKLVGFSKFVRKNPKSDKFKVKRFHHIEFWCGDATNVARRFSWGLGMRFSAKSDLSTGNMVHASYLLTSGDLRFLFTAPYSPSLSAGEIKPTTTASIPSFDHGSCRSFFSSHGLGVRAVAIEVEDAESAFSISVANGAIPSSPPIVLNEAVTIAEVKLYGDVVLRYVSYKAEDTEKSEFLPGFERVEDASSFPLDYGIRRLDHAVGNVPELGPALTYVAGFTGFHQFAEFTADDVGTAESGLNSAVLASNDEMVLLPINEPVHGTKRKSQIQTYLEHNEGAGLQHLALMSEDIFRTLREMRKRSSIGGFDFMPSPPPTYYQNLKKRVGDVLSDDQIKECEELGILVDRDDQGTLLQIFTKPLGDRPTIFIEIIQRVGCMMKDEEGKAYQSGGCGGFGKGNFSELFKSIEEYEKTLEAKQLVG
# human HPPD = biological target: T2, human HPPD (Homo sapiens, UniProt P32754); assay: inhibition kinetics (supplement Method S2); assay type: biochemical
# T2 construct: gene HPD
# T2 sequence (P32754 2-393): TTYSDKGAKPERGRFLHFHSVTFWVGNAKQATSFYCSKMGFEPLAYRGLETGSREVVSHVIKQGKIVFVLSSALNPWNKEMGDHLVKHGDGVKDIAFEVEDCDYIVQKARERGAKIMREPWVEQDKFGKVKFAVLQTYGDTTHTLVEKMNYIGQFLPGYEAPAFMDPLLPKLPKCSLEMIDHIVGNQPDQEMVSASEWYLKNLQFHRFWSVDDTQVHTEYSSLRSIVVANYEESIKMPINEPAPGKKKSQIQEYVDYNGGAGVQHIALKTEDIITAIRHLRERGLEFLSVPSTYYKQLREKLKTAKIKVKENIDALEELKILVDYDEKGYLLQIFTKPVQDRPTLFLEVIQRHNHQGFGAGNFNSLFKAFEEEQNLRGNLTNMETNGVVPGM
smiles,measurement,setting,value
Cc1cccc(C)c1-n1c(=O)c2cc(C(=O)C3C(=O)CCCC3=O)ccc2n(C)c1=O [Y13161],Ki,AtHPPD,24.2 ± 1.01 nM
same,Ki,human HPPD,179 ± 7.7 nM
